Among the data in paper PMC6240685, “Strong Inhibitory Effect, Low Cytotoxicity and High Plasma Stability of Steroidal Inhibitors of N-Methyl-D-Aspartate Receptors With C-3 Amide Structural Motif” (Frontiers in Pharmacology, 2018) are IC50 values, retold here.

As usually defined, the IC50 is the concentration that inhibits the measured activity by half.

For the experiment, the system named is HepG2 cells. Briefly: Hepatotoxicity, XTT viability after 72 h. It is filed as cell-based. Conditions: Homo sapiens; 72 h, HepG2, 5.5 mM glucose; read-out: Hepatotoxicity IC50, 5.5 mM glucose. The protocol: Then, the cell viability (XTT assay) and reactive oxygen species (ROS) induction were evaluated.
(A) Hepatotoxicity provoked by compound 4 was assessed after 72 h incubation of HepG2 cells in low glucose medium (5 mM) in the presence of compound 4 (0.25–100 μM). (B) Mitochondrial toxicity was determined after 24 h incubation of HepG2 cells in either high glucose medium (25 mM) or galactose medium (10 mM) in the presence of compound 4 (2.5–150 μM). Cell viabilities were recorded in triplicates in three independent experiments and expressed as percentage of vehicle control ± SD and IC50 values were determined by GraphPad Prism software using following equation: Y = Bottom + (Top–Bottom)/(1 + 10ˆ((LogIC50-X)^∗HillSlope)), where IC50 is the concentration of compound 4 that inhibits cell viability half way between Bottom and Top plateaus, X is compound 4 concentration and HillSlope describes the steepness of the family of curves. […] (C) Concentration-dependent effect on ROS level. HepG2 cells were treated with compound 4 (0.25–100 μM) for 72 h, and then the intracellular level of total ROS in relative fluorescence units (RFU) was detected. The data are presented as the mean ± SD for at least three independent experiments and each experiment was carried out in triplicate. Final concentration of DMSO in samples was 1%. […] Single asterisks (^∗) indicate a significant difference (P < 0.05) compared to 1% DMSO control (one-way ANOVA with Dunnett’s post-test).
HepG2 cells (ATCC®, United Kingdom) were grown in complete Minimal Essential Medium (EMEM) (5.5 mM glucose) medium, supplemented with 10% (v/v) fetal calf serum, 200 μg/mL of streptomycin, 200 U/mL of penicillin G and 4 mM glutamine. They were cultured under a humidified atmosphere containing 5% CO2 at 37°C.
The cytotoxicity of the tested compounds was assessed with use of XTT cell proliferation kit II (Roche Diagnostics GmbH, Mannheim, Germany) according to the manufacturer’s instructions. Briefly HepG2 cells were seeded in a 96-well plate at a density of 22,000 cells per well. After 24 h, the tested neurosteroids in a concentration range from 0.5 to 200 μM were added to the culture media and incubated for 72 h before the XTT dye was added. Mitochondrial toxicity was assessed in HepG2 cells using glucose and galactose conditioned media and XTT assay as a read out for cell viability. In brief, cells were seeded onto 96 well, clear bottom tissue culture plates at a density of 22,000 cells/well and left overnight to attach. Six hours prior to the neurosteroids treatment the media was replaced with 100 μL DMEM media containing either glucose (25 mM glucose; 1 mM pyruvate; 2 mM glutamine, 10% FBS) or galactose (10 mM galactose, 1 mM pyruvate, 6 mM glutamine, 10% FBS). After that, the tested neurosteroids in a concentration range from 0.5 to 200 μM were added in the fresh appropriate assay medium (glucose or galactose) and incubated for 24 h before the XTT dye was added. The XTT absorbance was recorded at 495 nm after 1 h incubation with the dye. Compounds were dissolved in DMSO to produce the stock solutions at the concentration of 10 mM, with exception of PAG, 1, 6 (5 mM), and 11 (2.5 mM). Results were expressed as percentages of change in viability compared to appropriate DMSO control. IC50 values were determined by GraphPad Prism version 5.00 for Windows (GraphPad Software, La Jolla, CA, United States). All experiments were done in triplicates in three independent experiments to check the reproducibility.
(Tetrazolium dyes change colour on reduction, which living cells bring about.)

Turning to `C[C@@]12CCC[C@H]1[C@@H]1CC[C@@H]3C[C@H](NC(=O)[C@@H](N)CC(=O)O)CC[C@]3(C)[C@H]1CC2` [Compound 6, (S)-3-amino-4-(((3R,5R,8S,9S,10S,13S,14S)-10,13-dimethylhexadecahydro-1H-cyclopenta[a]phenanthren-3-yl)amino)-4-oxobutanoic acid], the IC50 is over 200 µM.
